In US20240287052A1, “NOVEL OXAZOLE DERIVATIVE AND PHARMACEUTICAL COMPOSITION FOR PREVENTING OR TREATING ALLERGIC DISEASES COMPRISING THE SAME” (AZCURIS CO., LTD., priority 2021, published 2024):
Where two headings read alike, the source gives them in different places.

How the values were obtained:
[1] = tested on: Human liver cancer cell line HepG2 cells; assay: Cellular viability, WST-8 assay, without or with human liver microsomes; assay type: cell-based; settings: for Cellular viability (%) (+) microsome: HepG2, with human liver microsomes; for Cellular viability (%) (−) microsome: HepG2, without human liver microsomes
Description: Human liver cancer cell line HepG2 cells were cultured in a medium (high glucose Dulbecco's Modified Eagle Medium, DMEM, HyClone) supplemented with 10% fetal bovine serum (FBS, HyClone) and 1% antibiotic in a thermostat maintained at 37° C. with 5% CO2.
HepG2 cells, which are adherent cells, were […] or presence of human liver microsomes (Gibco) and NADPH regenerating system.
Cell cultures were exchanged using […] of medium (high glucose Dulbecco's Modified Eagle Medium, DMEM, HyClone) and incubated for 24 hours.
After adding 10 μL of WST-8 (abCam), the absorbance was obtained at 460 nm after 5 seconds of orbital shaking with a microplate reader (Tecan, Spark©) 2 hours later.
The mean of the three values obtained in triplicate was calculated and expressed as % cellular viability compared to vehicle treatment.

[2] = biological target: T1, IL33 and ST2 binding (Homo sapiens, UniProt O95760);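 further: plate ELISA with coated Flag-tagged human IL-33 and His-tagged human ST2, bound ST2 detected by anti-His HRP and TMB absorbance at 450 nm, 2 h compound incubation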
T1 sequence (O95760 112-270 limits assumed): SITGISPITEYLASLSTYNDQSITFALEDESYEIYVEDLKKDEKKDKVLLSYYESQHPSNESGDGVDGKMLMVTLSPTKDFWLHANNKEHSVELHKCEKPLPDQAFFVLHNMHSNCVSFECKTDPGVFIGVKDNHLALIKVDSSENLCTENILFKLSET

Row | Compound | inhibition ([2]; 30 µM) [%] | inhibition ([2]; 100 µM) [%] | Cellular viability (%) (+) microsome ([1]; at 50 μM) [at %] | Cellular viability (%) (−) microsome ([1]; at 50 μM) [at %] | other results
1 | CCOC(=O)c1nc(-c2ccc(C(F)(F)F)cc2)oc1-c1ccccc1N [Compound 99, Ethyl 5-(2-aminophenyl)-2-(4-(trifluoromethyl)phenyl)oxazole-4-carboxylate] | – | – | – | – | Cellular viability (%) (+) microsome ([1]; at 25 μM): 96 at %; Cellular viability (%) (−) microsome ([1]; at 25 μM): 79 at %
2 | CCOC(=O)c1coc(-c2ccc(C(F)(F)F)cc2)n1 [Compound 6, Ethyl 2-(4-(trifluoromethyl)phenyl)oxazole-4-carboxylate] | – | 110 | – | – | Cellular viability (%) (+) microsome ([1]; at 45 μM): 99 at %; Cellular viability (%) (−) microsome ([1]; at 45 μM): 66 at %
3 | CCOC(=O)c1nc(-c2ccc(C(F)(F)F)cc2)oc1-c1ccccc1[N+](=O)[O-] [Compound 32, Ethyl 5-(2-nitrophenyl)-2-(4-(trifluoromethyl)phenyl)oxazole-4-carboxylate] | 107 | 108 | – | – | Cellular viability (%) (+) microsome ([1]; at 25 μM): 95 at %; Cellular viability (%) (−) microsome ([1]; at 25 μM): 81 at %
4 | CCOC(=O)c1nc(-c2cc(F)cc(F)c2)oc1-c1ccccc1[N+](=O)[O-] [Compound 74, Ethyl 2-(3,5-difluorophenyl)-5-(2-nitrophenyl)oxazole-4-carboxylate] | – | – | – | – | Cellular viability (%) (+) microsome ([1]; at 45 μM): 96 at %; Cellular viability (%) (−) microsome ([1]; at 45 μM): 101 at %
5 | CN1CCN(CCNC(=O)c2nc(-c3ccc(C(F)(F)F)cc3)oc2-c2ccccc2[N+](=O)[O-])CC1 [Compound 153, N-(2-(4-Methylpiperazin-1-yl)ethyl)-5-(2-nitrophenyl)-2-(4-(trifluoromethyl)phenyl)oxazole-4-carboxamide] | 92 | 95 | 36 | 19 | –

Further lines, with some results ahead:

Row | inhibition ([2]; 30 µM) [%] | inhibition ([2]; 100 µM) [%] | Compound | Cellular viability (%) (+) microsome ([1]; at 50 μM) [at %] | Cellular viability (%) (−) microsome ([1]; at 50 μM) [at %] | other results
6 | -9 | 14 | CN(C)CCNC(=O)c1nc(-c2ccc(OC(F)(F)F)cc2)oc1-c1ccccc1 [Compound 203, N-(2-(Dimethylamino)ethyl)-5-phenyl-2-(4-(trifluoromethoxy)phenyl)oxazole-4-carboxamide] | 30 | 19 | –
7 | 31 | 26 | O=C(NCCCn1ccnc1)c1nc(-c2ccc(C(F)(F)F)cc2)oc1-c1ccccc1[N+](=O)[O-] [Compound 158, N-(3-(1H-Imidazol-1-yl)propyl)-5-(2-nitrophenyl)-2-(4-(trifluoromethyl)phenyl)oxazole-4-carboxamide] | 17 | 17 | –
8 | -38 | -51 | COc1ccc(-c2nc(C(=O)NCCN(C)C)c(-c3ccc([N+](=O)[O-])cc3)o2)cc1 [Compound 217, N-(2-(Dimethylamino)ethyl)-2-(4-methoxyphenyl)-5-(4-nitrophenyl)oxazole-4-carboxamide] | – | – | Cellular viability (%) (+) microsome ([1]; at 100 μM): 34 at %; Cellular viability (%) (−) microsome ([1]; at 100 μM): 19 at %
9 | 33 | 63 | CN(C)CCN1CCN(C(=O)c2nc(-c3ccc(Cl)cc3)oc2-c2ccccc2[N+](=O)[O-])CC1 [Compound 248, (2-(4-Chlorophenyl)-5-(2-nitrophenyl)oxazol-4-yl)(4-(2-(dimethylamino)ethyl)piperazin-1-yl)methanone] | 31 | 19 | –
10 | -8 | 5 | CN(C)CCNC(=O)c1nc(-c2ccc(F)c(F)c2)oc1-c1ccccc1 [Compound 231, 2-(3,4-Difluorophenyl)-N-(2-(dimethylamino)ethyl)-5-phenyloxazole-4-carboxamide] | 29 | 17 | –
11 | 73 | 72 | CC(=O)NCCNC(=O)c1nc(-c2ccc(C(F)(F)F)cc2)oc1-c1ccccc1[N+](=O)[O-] [Compound 285, N-(2-acetamidoethyl)-5-(2-nitrophenyl)-2-(4-(trifluoromethyl)phenyl)oxazole-4-carboxamide] | – | – | Cellular viability (%) (+) microsome ([1]; at 30 μM): 59 at %; Cellular viability (%) (−) microsome ([1]; at 30 μM): 54 at %
